In US20100173777A1, “Piperazine Compounds Having Herbicidal Action” (BASF SE, priority 2007, published 2010):

Assays:
Type in all cases: in vivo
[1] = test system: ECHCG (Echinochloa crus-galli); assay: greenhouse pre-emergence herbicidal test, ECHCG; details: scale from 0 to 100
Text: (§1) The culture containers used were plastic flowerpots containing loamy sand with approximately 3.0% of humus as the substrate. The seeds of the test plants were sown separately for each species.
(§2) For the pre-emergence treatment, the active ingredients, which had been suspended or emulsified in water, were applied directly after sowing by means of finely distributing nozzles. The containers were irrigated gently to promote germination and growth and subsequently covered with transparent plastic hoods until the plants had rooted. This cover caused uniform germination of the test plants, unless this has been impaired by the active ingredients.
(§3) Depending on the species, the plants were kept at 10-25° C. or 20-35° C. The test period extended over 2 to 4 weeks. During this time, the plants were tended, and their response to the individual treatments was evaluated.
(§4) Evaluation was carried out using a scale from 0 to 100. 100 means no emergence of the plants, or complete destruction of at least the aerial moieties, and 0 means no damage, or normal course of growth. A good herbicidal activity is given at values of at least 70 and a very good herbicidal activity is given at values of at least 85.

SETVI (Setaria viridis) = assay: greenhouse post-emergence herbicidal test, SETVI; details: 1.0 kg/ha, scale from 0 to 100
Text: as §1
(§5) For the post-emergence treatment, the test plants were first grown to a height of 3 to 15 cm, depending on the plant habit, and only then treated with the active ingredients which had been suspended or emulsified in water. For this purpose, the test plants were either sown directly and grown in the same containers, or they were first grown separately as seedlings and transplanted into the test containers a few days prior to treatment.
as §3, §4

[2] = test system: ALOMY (Alopecurus myosuroides); assay: greenhouse pre-emergence herbicidal test, ALOMY; details: scale from 0 to 100
Text: as §1, §2, §3, §4

[3] = test system: CHEAL (Chenopodium album); assay: greenhouse post-emergence herbicidal test, CHEAL; details: 1.0 kg/ha, scale from 0 to 100
Text: as §1, §5, §3, §4

SETFA (Setaria faberi) = assay: greenhouse pre-emergence herbicidal test, SETFA; details: 1.0 kg/ha, scale from 0 to 100
Text: as §1, §2, §3, §4

[4] = test system: AMARE (Amaranthus retoflexus); assay: greenhouse post-emergence herbicidal test, AMARE; details: 1.0 kg/ha, scale from 0 to 100
Text: as §1, §5, §3, §4

[5] = test system: AMARE (Amaranthus retoflexus); assay: greenhouse pre-emergence herbicidal test, AMARE; details: 1.0 kg/ha, scale from 0 to 100
Text: as §1, §2, §3, §4

[6] = test system: ECHCG (Echinochloa crus-galli); assay: greenhouse post-emergence herbicidal test, ECHCG; details: scale from 0 to 100
Text: as §1, §5, §3, §4

[7] = test system: APESV (Apera spica-venti); assay: greenhouse pre-emergence herbicidal test, APESV; details: scale from 0 to 100
Text: as §1, §2, §3, §4

[8] = test system: APESV (Apera spica-venti); assay: greenhouse post-emergence herbicidal test, APESV; details: 0.5 kg/ha, scale from 0 to 100
Text: as §1, §5, §3, §4

[9] = test system: ALOMY (Alopecurus myosuroides); assay: greenhouse post-emergence herbicidal test, ALOMY; details: 0.5 kg/ha, scale from 0 to 100
Text: as §1, §5, §3, §4

| Compound | herbicidal activity against ECHCG ([1]; 1.0 kg/ha) | herbicidal activity against SETVI (SETVI (Setaria viridis)) | herbicidal activity against ALOMY ([2]; 1.0 kg/ha) | herbicidal activity against CHEAL [3] | herbicidal activity against SETFA (SETFA (Setaria faberi)) | herbicidal activity against AMARE [4] | herbicidal activity against AMARE [5] | herbicidal activity against ECHCG ([6]; 1.0 kg/ha) | herbicidal activity against APESV ([7]; 1.0 kg/ha) | herbicidal activity against ECHCG ([1]; 0.5 kg/ha) | herbicidal activity against APESV [8] | herbicidal activity against ALOMY [9] | herbicidal activity against ALOMY ([2]; 0.5 kg/ha) | herbicidal activity against ECHCG ([6]; 0.5 kg/ha) | herbicidal activity against APESV ([7]; 0.5 kg/ha) |
| --- | --- | --- | --- | --- | --- | --- | --- | --- | --- | --- | --- | --- | --- | --- | --- |
| CN1C(=O)C(C)(Cc2ccccc2)N(C)C(=O)C1Cc1ccccc1C#N (single isomer, unassigned) [Example 1 (main isomer 1), 2-[5-Benzyl-1,4,5-trimethyl-3,6-dioxopiperazine-2-ylmethyl]benzonitrile] | very good herbicidal activity (a very good herbicidal activity is given at values of at least 85) | very good herbicidal activity (a very good herbicidal activity is given at values of at least 85) | very good herbicidal activity (a very good herbicidal activity is given at values of at least 85) | very good herbicidal activity (a very good herbicidal activity is given at values of at least 85) | very good herbicidal activity (a very good herbicidal activity is given at values of at least 85) | very good herbicidal activity (a very good herbicidal activity is given at values of at least 85) | very good herbicidal activity (a very good herbicidal activity is given at values of at least 85) | very good herbicidal activity (a very good herbicidal activity is given at values of at least 85) | very good herbicidal activity (a very good herbicidal activity is given at values of at least 85) | – | – | – | – | – | – |
| CN1C(=O)C(C)(Cc2ccccc2)N(C)C(=O)C1Cc1ccccc1C#N (single isomer, unassigned) [Example 1 (minor isomer 2), 2-[5-Benzyl-1,4,5-trimethyl-3,6-dioxopiperazine-2-ylmethyl]benzonitrile] | – | – | – | – | – | – | – | – | – | very good herbicidal activity (a very good herbicidal activity is given at values of at least 85) | very good herbicidal activity (a very good herbicidal activity is given at values of at least 85) | very good herbicidal activity (a very good herbicidal activity is given at values of at least 85) | very good herbicidal activity (a very good herbicidal activity is given at values of at least 85) | very good herbicidal activity (a very good herbicidal activity is given at values of at least 85) | very good herbicidal activity (a very good herbicidal activity is given at values of at least 85) |
